Here are results for six molecules from ChEMBL document CHEMBL1157106, “cis-Clerodane-type furanoditerpenoids from Tinospora crispa” (J Nat Prod, 2010).

Some results are limits rather than exact numbers.

For one assay, the system named is NIH3T3. Kind of assay: Cytotoxicity against mouse 3T3 cells after 72 hrs by MTT assay. It counts as cell-based. The conditions noted are these: NIH3T3, 72 h. Background: Tetrazolium dyes change colour on reduction, which living cells bring about.
The test system of another assay is PC-3. Kind of assay: cells. Conditions: Homo sapiens, PC-3, 72 h.

Description for PC-3: Cytotoxicity against human PC3 cells after 72 hrs by MTT assay

Take `C[C@@]12C[C@@H](c3ccoc3)OC(=O)[C@@H]1C[C@@H]1OC(=O)[C@@]3(O)[C@@H](O[C@@H]4O[C@H](CO)[C@@H](O)[C@H](O)[C@H]4O)CC[C@@H]2[C@@]13C` [BORAPETOSIDE A]: the concentration for half-maximal inhibition (IC50) with NIH3T3 and in the assay on PC-3 was > 10 µM in each case.

As for `COC(=O)C1=C[C@H](O)C[C@H]2[C@]3(C)C[C@@H](c4ccoc4)OC(=O)[C@H]3C[C@H](O[C@@H]3O[C@H](CO)[C@@H](O)[C@H](O)[C@H]3O)[C@@]12C` [BORAPETOSIDE B], the half-maximal inhibitory concentration (IC50) with NIH3T3 and in the assay with PC-3 was > 10 µM in each case.

Regarding `COC(=O)C1=CCC[C@H]2[C@]3(C)C[C@@H](c4ccoc4)OC(=O)[C@@H]3C[C@@H](O[C@@H]3O[C@H](CO)[C@@H](O)[C@H](O)[C@H]3O)[C@@]12C` [BORAPETOSIDE C], the IC50 in the assay on NIH3T3 and in the assay with PC-3 was > 10 µM each time.

`COC(=O)C1=CCC[C@H]2[C@](C)(C[C@@H](O[C@@H]3O[C@H](CO[C@@H]4O[C@H](CO)[C@@H](O)[C@H](O)[C@H]4O)[C@@H](O)[C@H](O)[C@H]3O)c3ccoc3)[C@H]3C[C@H](OC3=O)[C@@]12C` [BORAPETOSIDE D]: the IC50 with NIH3T3 and in the assay with PC-3 was > 10 µM each time.

`C[C@@H]1C[C@@H]([C@H](O)CC2CC(=O)NC(=O)C2)C(=O)[C@@H](C)C1` [CYCLOHEXIMIDE] returned an IC50 in the assay with NIH3T3 of 0.26 µM.

Molecule `COc1cccc2c1C(=O)c1c(O)c3c(c(O)c1C2=O)C[C@@](O)(C(=O)CO)C[C@@H]3O[C@H]1C[C@H](N)[C@H](O)[C@H](C)O1` [DOXORUBICIN] came in with a concentration for half-maximal inhibition (IC50) in the assay with PC-3 of 0.912 µM.

As a reminder, the IC50 is the concentration that inhibits the measured activity by half.
